Reference: patent US20250066722A1, “METHODS FOR PRODUCTION OF FUNCTIONAL NEURONS” (AXENT BIOSCIENCES INC., priority 2021, published 2025)

Test system: Human induced pluripotent stem cells (hPSCs)
Test: 3D dopaminergic neuron differentiation of hPSCs with tyrosine hydroxylase immunocytochemistry
Type: cell-based
Conditions: for expression of tyrosine hydroxylase in differentiating aggregates: by day 20, immunocytochemistry, FGF8, TGF-β, BDNF, GDNF removed and replaced with BT-13 or Q525, FIGS. 3 and 5; for production of hPSC-derived neurons expressing the functional biomarker Tyrosine Hydroxylase: replacement of GDNF, BDNF and TGF-β in maturation media from Day 11, BT-13 5 μM or Q525 5 nM, with DAPT 10 uM, 3D AXgel
Protocol: Human Pluripotent Stem Cell Culture. Human […] (hPSCs) (ThermoFisher A 18945) were subcultured in monolayer format on a layer of 1% Matrigel and maintained in Essential 8 medium during expansion. At 80% confluency, H9s were passaged using Versene solution and replated at a 1:8 split.
3D hPSC Culture Seeding. hPSCs were dissociated into single cells using Accutase solution and resuspended in Essential 8 (E8) medium containing 10 μM Y-27632 (Rock Inhibitor, RI). hPSCs were counted and resuspended at defined densities in 11% AXgel on ice. Cells suspended in AXgel were dispensed into a multi-well tissue culture plate and heated to 37° C. for 15 minutes and afterward pre-warmed E8 medium containing 10 μM RI was added to each well. 3D cell suspensions remained in E8 with RI for 2 days (from Day −2 to Day 0).
3D Dopaminergic Neuron Differentiation. Starting Day 0, hPSCs in AXgel were transitioned to differentiation media to induce neural lineage commitment and subsequently specification into midbrain dopaminergic neurons. Starting Day 11, neural precursors were transitioned to maturation media containing GDNF agonist BT-13 (5 μM) or Q525 (5 nM) in place of proteins GDNF, BDNF, and TGF-β. Media formulations were according to Table 2: […]
Immunocytochemistry. At the endpoint of the experiment, cell aggregates were harvested from AXgel by replacing warm media with chilled media and plated on 8-chamber culture slides coated with 10 μg/mL laminin and cultured overnight in the incubator to allow aggregates to adhere to the surface. Aggregates attached to the culture slide were then fixed using 4% paraformaldehyde (PFA) for 15 minutes. Aggregates were washed twice in PBS for 5 minutes each and incubated in 0.25% Triton-X+5% donkey serum in PBS for 10 minutes to permeabilize cells. After permeabilization, aggregates were washed 5 times in 5% donkey serum for 5 minutes each and incubated with primary antibodies of interest diluted in PBS+donkey serum (dilution details in Table 3), and stored overnight at 4° C. After primary staining, aggregates were washed twice in PBS for 5 minutes each and incubated in solution containing the corresponding secondary antibodies (dilution details in Table 3), and incubated at 37° C. for 2 hours. After secondary staining, aggregates were washed twice in PBS for 5 minutes each and culture slides were mounted with a cover slip to be imaged.
Microscopy. Live cell aggregates suspended in AXgel were periodically imaged during the experiment using an EVOS XL Core Imaging System for transmitted light microscopy available in the Cell and Tissue Analysis Facility through QB3-Berkeley. Fixed, stained, and mounted cell aggregates were imaged with a 20× or 40× objective using a Perkin Elmer Opera Phenix automated confocal fluorescence microscope available in the High-Throughput Screening Facility through QB3-Berkeley. Laser exposure time and power was kept constant for a fluorescence channel within an imaging set.

Structure (SMILES) | expression of tyrosine hydroxylase in differentiating aggregates | production of hPSC-derived neurons expressing the functional biomarker Tyrosine Hydroxylase | tyrosine hydroxylase-positive neurons (FIG. 5) (day 18, 10 nM Q525 in differentiation media free of GDNF, BDNF and TGFβ3, induction media without FGF8)
CCN(CC)S(=O)(=O)c1ccc(OC)c(N2CCN(C(=O)c3ccc(F)cc3C(F)(F)F)CC2)c1 [BT-13, N,N-diethyl-3-[4-[4-fluoro-2-(trifluoromethyl)-benzoyl]piperazin-1-yl]-4-methoxybenzenesulfonamide] | detected in neuronal cell bodies within all of the differentiating aggregates | sufficient to produce hPSC-derived neurons expressing the functional biomarker Tyrosine Hydroxylase | 
O=C1C(Nc2ccc(CO)cc2)=C(O)C(=O)c2ncccc21 [Q525] | detected in neuronal cell bodies within all of the differentiating aggregates | sufficient to produce hPSC-derived neurons expressing the functional biomarker Tyrosine Hydroxylase | tyrosine hydroxylase-positive neurons at day 18
